From patent US7803546B2, “Method of screening for sensitivity to kinase inhibitor therapy” (Cedars-Sinai Medical Center, priority 2002, dated 2010)

Legend:
[1] = tested on: non-small cell lung cancer; test: Clinical response to TKI therapy in non-small cell lung cancer patients, correlated with EMP-1 expression; format: in vivo, human; settings: NSCLC patients; EMP-1 detectable by TAQMAN
Method: The gene expression profiles of IR tumors were analyzed by gene chip analysis, using the gene arrays described in Alon et al., Proc. Natl. Acad. Sci. USA, vol. […] Presence of EMP-1 RNA was assessed with TAQMAN from paraffin samples.

[2] = tested on: androgen-independent (CWR22R) xenograft tumors
Method: (§1) A control (i.e., no TKI administered) is graphically depicted as well. This experiment was performed in an androgen-independent prostate xenograft model. […] The daily dosing was at the maximally tolerated dosage in the mice.
as §1

[3] = tested on: IRESSA-resistant (IR) CWR22R tumors; test: Treatment of IRESSA-resistant (IR) CWR22R tumor lines; settings: after three weeks of treatment, tumor growth curves

## COc1cc2ncnc(Nc3ccc(F)c(Cl)c3)c2cc1OCCCN1CCOCC1 [IRESSA, Gefitnib]
[1]
  Probability of response to therapy in individuals with EMP-1 expression above threshold: less than 10%
[2]; mouse, in vivo
  Tolerability of weekly dosing: well tolerated
[2]; summary range following IRESSA treatment (covers CWR22 and CWR22R)
  Decrease in tumor volume in this tumor model: 50-70%
[3]
  Response of serially passaged tumors to IRESSA, generations F0-F3: demonstrated sensitivity
